# Experimental data: US11020374B2, “Sulcardine salts” (HUYA Bioscience International, LLC, priority 2019, dated 2021)
# Several values for one entry are separate records, joined by “and”; a condition that tells them apart may be missing. Identical values can stand only once. Counter-ions that a name gives are not always drawn.
# Columns and labels:
# [1] = cited from earlier work; for pKa 1: first pKa
# [2] = Dynamic vapor sorption (DVS) experiment; assay type: physicochemical; conditions: for crystalline form of the salt before the DVS experiment and afterwards: XRPD form before vs after DVS; for uptake of water (DVS): at 90% RH
# [3] = One-week stability studies (40° C./75% RH, 80° C., ambient light) by XRPD and HPLC; assay type: physicochemical; conditions: for HPLC purity after stability experiment: 99% before; for stability by XRPD / appearance: one week at 80° C. and ambient humidity
# Experimental: For all of the stability studies provided herein under the condition of 40° C. and 75% RH, samples were in an uncapped vial and stored in a stability chamber set to 40° C./75% RH. For the 80° C. studies, samples were in a sealed vial and placed in an oven set to 80° C. For the ambient light studies, the samples were in a sealed vial placed on a windowsill in the lab which was exposed to ambient natural and artificial light.
# [4] = Solubility in 20 mM buffers (Example 3), slurried ca. 72 hr, HPLC concentration; assay type: physicochemical; conditions: pH 1.2
# Experimental: 20 mM buffers were prepared to pH 1.2 (HCl/KCl), pH 3.0 (HCl/glycine), pH 4.0 (citric acid/sodium citrate) and pH 7.4 (potassium phosphate monobasic/NaOH). To 0.5 mL of each buffer, the appropriate salt was added to form a slurry. The pH of the slurry was measured and adjusted back to the desired pH (i.e., the initial pH of the buffer) if necessary using 0.2 M buffer components (e.g. 0.2 M HCl(aq)). […] After this time, if solid remained, the pH was again adjusted back to the desired pH if necessary using 0.2 M buffer components. If no solid remained, additional solid was added to reform the slurry before the pH was again adjusted back to the desired pH if necessary using 0.2 M buffer components. All samples were then slurried for a further 2 hr before being analysed by HPLC for concentration.
# [5] = GVS (gravimetric vapor sorption) with post-GVS XRPD; assay type: physicochemical; conditions: 40-90-0-40% RH, 25° C., two cycles
# Experimental: Form II was first observed during the GVS characterization of Form I. The material collected post-GVS analysis of Form I was analyzed by XRPD. […] The XRPD reference is “LNB15318-53-1-PostGVS” in FIG. 34.
# Approximately 26 mg of Form I was placed into a mesh vapor sorption balance pan and loaded into an IGASorp Moisture Sorption Analyser balance by Hiden Analytical. The sample was subjected to a ramping profile from 40-90% relative humidity (RH) at 10% increments, maintaining the sample at each step until a stable weight had been achieved (98% step completion, minimum step length 30 minutes, maximum step length 60 minutes) at 25° C. After completion of the sorption cycle, the sample was dried using the same procedure to 0% RH, and finally taken back to the starting point of 40% RH. Two cycles were performed. The weight change during the sorption/desorption cycles were plotted, allowing for the hygroscopic nature of the sample to be determined. The material collected post-GVS analysis was analyzed by XRPD.
# [6] = Sulcardine salts PK analysis, oral capsule administration; assay type: in vivo; conditions: single oral capsule administration, fasted male Beagle dogs
# Experimental: The pharmacokinetic objective of this study was to assess the exposure to sulcardine following oral capsule administration or intravenous (IV) infusion of sulcardine sulfate salt, sulcardine naphthoate salt, or sulcardine mono-edisylate salt (Form II) to male dogs during a pharmacokinetic study.
# Non-naïve Beagle Dogs were fasted. Dosing formulations (oral [PO] capsule and intravenous [IV] infusion) were prepared on the day prior to dosing. The IV formulations were made in 10 mM Glycine (pH adjusted to 3.0±0.1), 3% Mannitol, qs in Sterile Water for Injection, USP were filtered through a 0.22 μm PVDF filter and stirred for at least 30 minutes prior to dosing. The capsule doses were encapsulated as active pharmaceutical ingredient powder into the appropriate number of […] gelatin capsules on the day prior to dosing.
# Oral dosing was once on Day 1 by oral capsule administration; IV dosing was once on Day 1 by IV infusion over approximately 45 minutes (±2 minutes).
# The blood samples for animals dosed orally were collected at 0.5, 1, 2, 3, 5, 8, 12, 18, 24, and 36 hours postdose. The blood samples for animals dosed IV were collected at approximately 0.33, 0.75 (end of infusion), 1.5, 3, 6, 9, 12, 18, and 24 hours post the start of infusion.
# The blood samples were centrifuged under refrigerated (2° C. to 8° C.) conditions at 3,200 RPM for 10 minutes and the resulting plasma was divided into two aliquots (150 μL and remaining) then frozen and shipped for bioanalysis. Plasma samples were analyzed for concentrations of sulcardine by Citoxlab North America, Laval, Québec, Canada.
# Individual sulcardine plasma concentration time profiles from sulcardine sulfate salt, sulcardine mono-edisylate salt, or sulcardine naphthoate salt treated animals were analyzed using model-independent methods (Gibaldi M, Perrier D. Pharmacokinetics. 2nd ed. New York: Marcel Dekker, Inc., 1982:409-17). Pharmacokinetic parameters were obtained/calculated for each animal on Day 1.
# [7] = one week at 40° C. and 75% RH, uncapped vial
# [8] = one week under ambient light conditions, sealed vial
# [9] = one week under ambient light conditions
# [10] = increase in relative humidity (RH) from about 10% to about 90%
SMILES,crystalline form of the salt before the DVS experiment and afterwards [2],uptake of water (DVS) [2],"stability by XRPD [3, 7]",HPLC purity after stability experiment ([3]; one week at 40° C. and 75% RH),stability by XRPD / appearance ([3]; sealed vial),HPLC purity after stability experiment ([3]; one week at 80° C.),"stability by XRPD [3, 8]","HPLC purity after stability experiment [3, 9]","mass increase [2, 10]",other results
"O=S(=O)(O)CCS(=O)(=O)O [1,2-Ethanedisulfonic acid]",,,,,,,,,,pKa 1 [1]: −2.06
"COc1ccc(NS(=O)(=O)c2cc(CN3CCCC3)c(O)c(CN3CCCC3)c2)cc1.O=S(=O)(O)c1cccc2c(S(=O)(=O)O)cccc12 [Example 5, naphthalene-1,5-disulfonic acid salt of sulcardine]",the same,about 3.3%,unchanged,99%,unchanged,99%,unchanged,99%,,mass increase ([2]; increase in relative humidity (RH) from about 5% to about 95%): about 3.3%
"COc1ccc(NS(=O)(=O)c2cc(CN3CCCC3)c(O)c(CN3CCCC3)c2)cc1.O=C(O)c1ccc2ccccc2c1O [Example 8, 1-hydroxy-2-naphthoic acid salt of sulcardine]",,,,,,,,,about 0.7%,Crystallinity of the material in the solubility experiment [4]: loses crystallinity
"COc1ccc(NS(=O)(=O)c2cc(CN3CCCC3)c(O)c(CN3CCCC3)c2)cc1.O=S(=O)(O)c1ccc2ccccc2c1 [Example 10, naphthalene-2-sulfonic acid salt of sulcardine]",,,unchanged,99% and 98%,changed into an orange gel,90%,unchanged by XRPD but had turned pale yellow,99% and 97%,,"stability by XRPD / appearance ([3]; sealed vial, listed as Example 9): unchanged; HPLC purity after stability experiment ([3]; one week at 80° C., listed as Example 9): 99%; stability by XRPD ([3]; one week under ambient light conditions, sealed vial, listed as Example 9): unchanged"
"COc1ccc(S(=O)(=O)NCc2cc(CN3CCCC3)c(O)c(CN3CCCC3)c2)cc1 [Example 12, sulcardine hydrochloride]",the same,about 2.2%,unchanged,98%,changed into an orange gel,90%,unchanged,99%,about 2.2%,
"COc1ccc(NS(=O)(=O)c2cc(CN3CCCC3)c(O)c(CN3CCCC3)c2)cc1.COc1ccc(NS(=O)(=O)c2cc(CN3CCCC3)c(O)c(CN3CCCC3)c2)cc1.O=S(=O)(O)CCS(=O)(=O)O [Example 14, hemi-ethane-1,2-disulfonic acid salt of sulcardine]",the same,about 0.5%,unchanged,98%,unchanged,97%,unchanged,97%,about 0.5%,
"COc1ccc(NS(=O)(=O)c2cc(CN3CCCC3)c(O)c(CN3CCCC3)c2)cc1.O=S(=O)(O)CCS(=O)(=O)O [Example 17, mono-ethane-1,2-disulfonic acid salt of sulcardine]",,,,,,,,,,XRPD of material collected post-GVS analysis [5]: A new pattern (denoted Form II) was observed
"COc1ccc(NS(=O)(=O)c2cc(CN3CCCC3)c(O)c(CN3CCCC3)c2)cc1.O=S(=O)(O)CCS(=O)(=O)O [Example 18, mono-ethane-1,2-disulfonic acid salt of sulcardine]",,,,,,,,,,Cmax of sulcardine in plasma ([6]; group average): 4570 ng/mL; Tmax (median peak sulcardine plasma concentration) ([6]; median): 0.5 h
"COc1ccc(S(=O)(=O)NCc2cc(CN3CCCC3)c(O)c(CN3CCCC3)c2)cc1 [Sulcardine free base comparator, 4-methoxy-N-(3,5-bis-(1-pyrrolidinylmethyl)-4-hydroxybenzyl)benzene sulfonamide]",,,,,,,,,,pKa 1 [1]: 6.00; pKa 2 ([1]; second pKa): 10.57; pKa 3 ([1]; third pKa): 11.65
"COc1ccc(S(=O)(=O)NCc2cc(CN3CCCC3)c(O)c(CN3CCCC3)c2)cc1 [sulfate salt, Sulcardine sulfate, reference compound]",,,,,,,,,,"Cmax ([6]; dog, plasma, group average): 2820 ng/mL; Tmax ([6]; dog, plasma, median, read-out: Tmax (median peak sulcardine plasma concentration)): 2 h"
